Source: US6288060A, “Amino substituted pyrimidines and triazines” (Neurocrine Biosciences, Inc., priority 1998, dated 2001)

Target: T1, human CRF receptors (Homo sapiens, UniProt P34998)
T1 construct: expressed in transfected cells
T1 sequence (P34998 24-415): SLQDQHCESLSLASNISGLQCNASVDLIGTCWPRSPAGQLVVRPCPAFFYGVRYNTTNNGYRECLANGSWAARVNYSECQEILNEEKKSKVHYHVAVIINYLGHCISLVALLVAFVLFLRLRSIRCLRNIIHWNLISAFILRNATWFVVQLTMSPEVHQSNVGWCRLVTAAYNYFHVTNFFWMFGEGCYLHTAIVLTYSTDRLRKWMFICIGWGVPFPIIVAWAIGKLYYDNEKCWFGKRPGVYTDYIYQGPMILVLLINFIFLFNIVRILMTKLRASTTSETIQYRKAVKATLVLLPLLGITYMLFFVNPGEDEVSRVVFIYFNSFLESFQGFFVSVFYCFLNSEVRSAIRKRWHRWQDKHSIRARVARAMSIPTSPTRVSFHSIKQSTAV
Assay: radioligand binding assay, displacement of [125I]tyrosine-ovine CRF from CRF receptor (stably transfected cells)
Details: for Ki: [125I]tyrosine-ovine CRF ~200 pM, cells stably transfected with human CRF receptors, 2 hours at 22° C.
Excerpt: The effectiveness of a compound as a CRF receptor antagonist may be determined by various assay methods. […] CRF receptor affinity may be determined by binding studies that measure the ability of a compound to inhibit the binding of a radiolabeled CRF (e.g. [^125 I]tyrosine CFR) to receptor (e.g., receptors prepared from rat cerebral cortex membranes). The radioligand binding assay described by DeSouza et al. (supra, 1987) provides an assay for determining a compound's affinity for the CRF receptor.
where L=radioligand and KD =affinity of radioligand for receptor (Cheng and Prusoff, Biochem. Pharmacol. 22:3099, 1973).
By utilizing various radiolabeled CRF ligands, the assay may be used to evaluate the binding activity of the compounds of the present invention with any CRF receptor subtype. Briefly, the binding assay involves the displacement of a radiolabeled CRF ligand from the CRF receptor.
More specifically, the binding assay was performed in 1.5 ml Eppendorf tubes using approximately 1×10^6 cells per tube stably transfected with human CRF receptors. Each tube received about 0.1 ml of assay buffer (e.g., Dulbecco's phosphate buffered saline, 10 mM magnesium chloride, 20 μM bacitracin) with or without unlabeled sauvagine, urotensin I or CRF (final concentration, […]) to determine nonspecific binding, 0.1 ml of [^125 I] tyrosine--ovine CRF (final concentration ~200 pM or approximately the KD as determined by Scatchard analysis) and 0.1 ml of a membrane suspension of cells containing the CRF receptor. The mixture was incubated for 2 hours at 22° C. followed by the separation of the bound and free radioligand by centrifugation. Following two washes of the pellets, the tubes were cut just above the pellet and monitored in a gamma counter for radioactivity at approximately 80% efficiency. All radioligand binding data was analyzed using a non-linear least-square curve-fitting program. Binding activity corresponds to the concentration (nM) of the compound necessary to displace 50% of the radiolabeled ligand from the receptor.

Row | Ki | score in CRF receptor binding test (ranking among compounds) (result in words, same radioligand binding assay) | Structure (SMILES)
1 | ≤ 0.25 µM |  | C=CCN(CC=C)c1nc(C)nc(C(=O)c2c(C)cc(C)cc2C)c1C [Compound 14]
2 | ≤ 0.25 µM | best score | CCCN(CC1CC1)c1nc(C)nc(C(=O)c2c(CC)cc(CC)cc2CC)c1C [Compound 8]
3 | ≤ 0.25 µM |  | CCCN(CC1CC1)c1nc(C)nc(C(=O)c2c(C)cc(C)cc2C)c1C [Compound 5]
4 | ≤ 0.25 µM |  | CCCN(CC1CC1)c1nc(C)nc(Cc2c(OC)cc(OC)cc2OC)c1C [Compound 20, 2,6-dimethyl-4-(N-propyl-N-cyclopropylmethylamino)-6-(2',4',6'-trimethyloxyphenylmeth-1'-yl)-pyrimidine]
5 | ≤ 0.25 µM |  | CCCN(CC1CC1)c1nc(C)nc(C(=O)c2c(OC)cc(OC)cc2OC)c1C [Compound 2]
6 | ≤ 0.25 µM |  | CCCN(CCC)c1nc(C)nc(C(=O)c2c(C)cc(C)cc2C)c1C [Compound 13]
